The IC50 is the point on the concentration scale where inhibition reaches its midpoint. In general, EC50 refers to the concentration needed to bring the measured effect to its halfway point. The low end stands for greater potency, the high end for weaker potency.

Series [1] concerns the target T1, Histone-arginine methyltransferase CARM1 (Homo sapiens, UniProt Q86X55).
T1 sequence (Q86X55 whole entry): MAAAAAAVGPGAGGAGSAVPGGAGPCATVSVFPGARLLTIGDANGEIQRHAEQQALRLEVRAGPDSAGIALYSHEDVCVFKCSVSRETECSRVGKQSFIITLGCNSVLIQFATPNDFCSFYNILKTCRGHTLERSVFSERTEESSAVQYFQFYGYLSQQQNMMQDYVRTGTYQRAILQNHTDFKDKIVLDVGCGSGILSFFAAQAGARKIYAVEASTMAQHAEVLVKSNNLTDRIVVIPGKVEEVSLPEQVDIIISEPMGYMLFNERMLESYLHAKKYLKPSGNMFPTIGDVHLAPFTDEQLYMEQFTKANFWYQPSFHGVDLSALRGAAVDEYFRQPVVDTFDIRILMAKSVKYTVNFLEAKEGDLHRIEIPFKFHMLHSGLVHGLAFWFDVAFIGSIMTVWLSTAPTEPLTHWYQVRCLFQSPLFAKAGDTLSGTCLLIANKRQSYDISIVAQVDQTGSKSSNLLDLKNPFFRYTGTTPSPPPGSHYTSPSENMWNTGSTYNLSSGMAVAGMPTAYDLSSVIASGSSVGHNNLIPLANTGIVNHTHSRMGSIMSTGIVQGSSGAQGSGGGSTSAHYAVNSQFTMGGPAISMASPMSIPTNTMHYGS
Put plainly: Inhibition of CARM1 assessed as blockade of histone H3 methylation.

Series [2] can be described thus: Membrane permeability by PAMPA. It is filed as ADME. Conditions: read-out: permeability. On the technique in general: PAMPA measures passive passage across an artificial lipid membrane.
The target in series [3] is Protein arginine N-methyltransferase 1 (Homo sapiens, UniProt Q99873). Put plainly: Inhibition of PRMT1 by methylation assay.
For series [4], the target named is Cytochrome P450 2C9 (Homo sapiens, UniProt P11712). The series is described as follows: Inhibition of CYP2C9 expressed in human hepatocytes. It is filed as ADME, cell-based, Hepatocyte.
Series [5] addresses Cytochrome P450 2D6 (Homo sapiens, UniProt P10635). The series is described as follows: Inhibition of CYP2D6 expressed in human hepatocytes. It is filed as ADME, cell-based, Hepatocyte.
Series [6] in a line: Toxicity against human hepatocytes. The series is classed as cell-based, Hepatocyte.
Series [7] has as its target Protein arginine N-methyltransferase 3 (Homo sapiens, UniProt O60678). Put plainly: Inhibition of PRMT3 by methylation assay.
A short description of series [8]: Metabolic stability in human microsomes per microgram of protein. The series is classed as ADME, Microsome.
Series [9] deals with Cytochrome P450 3A4 (Homo sapiens, UniProt P08684). The series is described as follows: Inhibition of CYP3A4 expressed in human hepatocytes. It is filed as ADME, cell-based, Hepatocyte.
Series [10] deals with T2, Nuclear receptor subfamily 1 group I member 2 (Homo sapiens, UniProt O75469).
T2 sequence (O75469 whole entry): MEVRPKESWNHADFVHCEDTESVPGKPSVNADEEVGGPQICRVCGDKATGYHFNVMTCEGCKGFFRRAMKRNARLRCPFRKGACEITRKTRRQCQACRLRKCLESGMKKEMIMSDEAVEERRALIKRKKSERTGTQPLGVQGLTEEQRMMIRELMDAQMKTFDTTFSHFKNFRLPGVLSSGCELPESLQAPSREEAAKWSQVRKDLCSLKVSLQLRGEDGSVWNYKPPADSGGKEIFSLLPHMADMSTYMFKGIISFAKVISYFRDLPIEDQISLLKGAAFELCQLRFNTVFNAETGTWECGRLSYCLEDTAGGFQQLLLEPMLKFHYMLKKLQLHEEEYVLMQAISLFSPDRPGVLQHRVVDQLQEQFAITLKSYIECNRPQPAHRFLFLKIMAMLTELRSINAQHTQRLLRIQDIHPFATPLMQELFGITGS
Put plainly: Inhibition of human PXR.

For series [11], the target named is Cytochrome P450 2C19 (Homo sapiens, UniProt P33261). Put plainly: Inhibition of CYP2C19 expressed in human hepatocytes. The series is classed as ADME, cell-based, Hepatocyte.
Chain of Cytochrome P450 2C19 (P33261 whole entry): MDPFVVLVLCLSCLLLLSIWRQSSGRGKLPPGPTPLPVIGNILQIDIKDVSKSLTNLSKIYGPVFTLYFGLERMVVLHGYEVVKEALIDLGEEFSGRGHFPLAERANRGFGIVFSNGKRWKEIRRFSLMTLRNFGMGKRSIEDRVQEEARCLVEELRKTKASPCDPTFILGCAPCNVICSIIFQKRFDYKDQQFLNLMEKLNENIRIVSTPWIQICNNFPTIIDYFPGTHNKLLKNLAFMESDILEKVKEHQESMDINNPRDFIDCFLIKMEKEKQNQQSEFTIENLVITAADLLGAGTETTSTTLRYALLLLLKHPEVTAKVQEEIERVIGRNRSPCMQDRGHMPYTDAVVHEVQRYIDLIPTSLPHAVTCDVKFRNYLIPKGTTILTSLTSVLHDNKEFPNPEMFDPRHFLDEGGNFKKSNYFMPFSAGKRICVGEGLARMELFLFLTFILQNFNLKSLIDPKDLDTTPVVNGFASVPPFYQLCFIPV

Chain of Protein arginine N-methyltransferase 1 (Q99873 whole entry): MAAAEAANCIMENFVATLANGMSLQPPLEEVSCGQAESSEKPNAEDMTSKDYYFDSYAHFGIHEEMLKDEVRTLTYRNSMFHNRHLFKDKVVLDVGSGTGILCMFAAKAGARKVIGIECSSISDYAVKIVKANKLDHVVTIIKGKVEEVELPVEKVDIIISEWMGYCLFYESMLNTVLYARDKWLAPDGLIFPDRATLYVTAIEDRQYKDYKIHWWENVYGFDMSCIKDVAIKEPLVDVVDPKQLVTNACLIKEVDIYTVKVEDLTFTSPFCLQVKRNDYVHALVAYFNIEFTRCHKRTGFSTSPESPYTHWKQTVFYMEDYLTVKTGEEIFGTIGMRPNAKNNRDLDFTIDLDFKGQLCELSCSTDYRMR
Chain of Protein arginine N-methyltransferase 3 (O60678 whole entry): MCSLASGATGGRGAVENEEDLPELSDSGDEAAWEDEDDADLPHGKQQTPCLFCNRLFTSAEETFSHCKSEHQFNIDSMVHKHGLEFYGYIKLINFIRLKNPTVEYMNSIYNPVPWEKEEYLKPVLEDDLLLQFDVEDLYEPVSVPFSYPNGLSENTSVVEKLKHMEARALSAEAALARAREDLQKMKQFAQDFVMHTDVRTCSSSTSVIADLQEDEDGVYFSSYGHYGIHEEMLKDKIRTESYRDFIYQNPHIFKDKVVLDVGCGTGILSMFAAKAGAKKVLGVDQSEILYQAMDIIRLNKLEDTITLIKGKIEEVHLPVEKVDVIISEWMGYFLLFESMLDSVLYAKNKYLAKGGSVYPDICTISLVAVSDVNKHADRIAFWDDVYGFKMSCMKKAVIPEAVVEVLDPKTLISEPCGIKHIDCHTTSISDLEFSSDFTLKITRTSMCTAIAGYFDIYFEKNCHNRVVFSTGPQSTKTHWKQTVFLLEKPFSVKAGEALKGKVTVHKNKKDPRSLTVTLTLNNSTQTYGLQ
Chain of Cytochrome P450 3A4 (P08684 whole entry): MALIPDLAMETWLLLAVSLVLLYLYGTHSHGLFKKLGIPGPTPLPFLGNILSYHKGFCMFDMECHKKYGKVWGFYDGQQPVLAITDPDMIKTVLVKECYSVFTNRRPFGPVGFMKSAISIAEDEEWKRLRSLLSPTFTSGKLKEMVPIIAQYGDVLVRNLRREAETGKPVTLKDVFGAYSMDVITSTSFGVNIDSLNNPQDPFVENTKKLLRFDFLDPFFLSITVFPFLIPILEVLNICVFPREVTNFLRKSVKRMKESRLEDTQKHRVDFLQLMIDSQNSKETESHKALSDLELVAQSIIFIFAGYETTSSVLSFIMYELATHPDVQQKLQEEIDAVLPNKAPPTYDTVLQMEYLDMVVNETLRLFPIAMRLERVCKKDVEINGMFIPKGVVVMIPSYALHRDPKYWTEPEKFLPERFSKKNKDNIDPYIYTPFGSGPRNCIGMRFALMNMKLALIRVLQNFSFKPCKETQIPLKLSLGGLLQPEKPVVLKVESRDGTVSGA
Chain of Cytochrome P450 2D6 (P10635 whole entry): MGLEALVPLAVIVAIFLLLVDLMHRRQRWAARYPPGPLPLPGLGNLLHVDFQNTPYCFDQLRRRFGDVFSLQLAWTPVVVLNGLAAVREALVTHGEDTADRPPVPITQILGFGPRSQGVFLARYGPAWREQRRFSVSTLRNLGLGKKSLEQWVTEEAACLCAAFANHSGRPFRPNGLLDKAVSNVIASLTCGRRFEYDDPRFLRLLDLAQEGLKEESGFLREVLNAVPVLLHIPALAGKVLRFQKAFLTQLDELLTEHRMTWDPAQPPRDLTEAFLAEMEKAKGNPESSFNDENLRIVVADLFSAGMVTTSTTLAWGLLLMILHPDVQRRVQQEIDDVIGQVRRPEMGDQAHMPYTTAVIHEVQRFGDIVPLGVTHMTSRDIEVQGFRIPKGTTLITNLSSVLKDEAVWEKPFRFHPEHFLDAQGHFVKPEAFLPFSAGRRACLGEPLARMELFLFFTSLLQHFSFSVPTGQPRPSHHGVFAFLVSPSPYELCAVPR
Chain of Cytochrome P450 2C9 (P11712 whole entry): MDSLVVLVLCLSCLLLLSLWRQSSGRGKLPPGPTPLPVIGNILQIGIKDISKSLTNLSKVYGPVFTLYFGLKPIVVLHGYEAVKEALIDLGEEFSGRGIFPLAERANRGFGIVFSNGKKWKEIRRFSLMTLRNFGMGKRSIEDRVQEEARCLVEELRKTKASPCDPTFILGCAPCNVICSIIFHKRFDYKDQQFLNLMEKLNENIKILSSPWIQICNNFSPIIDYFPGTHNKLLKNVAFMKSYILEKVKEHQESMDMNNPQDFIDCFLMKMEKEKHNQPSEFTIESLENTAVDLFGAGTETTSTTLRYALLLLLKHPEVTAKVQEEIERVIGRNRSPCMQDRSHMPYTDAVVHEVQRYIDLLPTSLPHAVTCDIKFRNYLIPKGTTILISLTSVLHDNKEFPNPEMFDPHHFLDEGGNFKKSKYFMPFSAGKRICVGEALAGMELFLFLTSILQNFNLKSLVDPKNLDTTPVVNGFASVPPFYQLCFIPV

For the compound `C[C@H](N)CNCc1cccc(-n2nc(C(F)(F)F)cc2-c2nnc(-c3ccccc3)o2)c1`, the concentration for half-maximal inhibition (IC50) in [1] is above 10 µM.

Regarding `C[C@H](N)C(=O)NCc1cccc(-n2nc(C(F)(F)F)cc2C(=O)NCc2ccccc2)c1`, the Papp in series [2] is below 1.5 ×10⁻⁶ cm/s.

As for `C[C@H](N)C(=O)NCc1cccc(-n2nc(C(F)(F)F)cc2-c2nnc(-c3cccc4ncsc34)o2)c1`, the half-inhibitory concentration (IC50) in series [3] was above 25 µM; in [4], above 100 µM; in series [5] it was above 100 µM; in series [6] it was above 100 µM; in series [7], above 25 µM; in series [9], above 100 µM. Besides, the values for the 50% inhibitory concentration (IC50) in series [11] and in series [1] were above 100 µM and 0.04 µM, respectively. Moreover, the Stability in series [8] was found to be 0.026 nM/min. The compound also came in with a 50% effective concentration (EC50) in series [10] above 25 µM. In addition, in series [2], the Papp was found to be 26.7 ×10⁻⁶ cm/s.

On to `C[C@H](N)C(=O)NCc1cccc(-n2nc(C(F)(F)F)cc2-c2nnc(-c3ccccc3)o2)c1`, for which the Papp in [2] was 10.6 ×10⁻⁶ cm/s.

In the case of `C[C@H](N)C(=O)N(C)Cc1cccc(-n2nc(C(F)(F)F)cc2-c2nnc(-c3ccccc3)o2)c1`, the half-maximal inhibitory concentration (IC50) in [1] is above 10 µM.

In the case of `COc1ccccc1Nc1nnc(-c2cc(C(F)(F)F)nn2-c2cccc(CNC(=O)[C@H](C)N)c2)o1`, in series [2], the Papp was below 1.5 ×10⁻⁶ cm/s.

Values taken from ChEMBL document CHEMBL1136918, “Optimization of pyrazole inhibitors of Coactivator Associated Arginine Methyltransferase 1 (CARM1)” (Bioorg Med Chem Lett, 2009).
